Reference: patent US20230151025A1, “SUBSTITUTED THIAZOLOPYRIDINES, SALTS THEREOF AND THEIR USE AS HERBICIDALLY ACTIVE SUBSTANCES” (Bayer Aktiengesellschaft, priority 2020, published 2023)

Assays:
Format in all cases: in vivo
[1] = system: Echinochloa crus-galli (ECHCG); test: Herbicidal pre-emergence action (A), 1280 g/ha; conditions: visual grading after ca. 3 weeks vs untreated controls, 100% = plants have died off, 0% = as control plants
Summary of the method: (§1)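 Pre-emergence soil-surface spray, 600 l/ha water, 0.5% additive, WP or EC formulation. Sandy loam, double sowing per pot, greenhouse under optimum growth. Visual % damage at ~3 wk vs untreated; 100% = plants died off.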

[2] = system: Matricaria inodora (MATIN); test: Herbicidal pre-emergence action (A), 1280 g/ha; conditions: visual grading after ca. 3 weeks vs untreated controls
Summary of the method: as §1

[3] = system: Abutilon theophrasti (ABUTH); test: Herbicidal pre-emergence action (A), 1280 g/ha; conditions: visual grading after ca. 3 weeks vs untreated controls, 100% = plants have died off, 0% = as control plants
Summary of the method: as §1

[4] = system: Digitaria sanguinalis (DIGSA); test: Herbicidal pre-emergence action (A), 1280 g/ha; conditions: visual grading after ca. 3 weeks vs untreated controls, 100% = plants have died off, 0% = as control plants
Summary of the method: as §1

[5] = system: Amaranthus retroflexus (AMARE); test: Herbicidal pre-emergence action (A), 1280 g/ha; conditions: visual grading after ca. 3 weeks vs untreated controls
Summary of the method: as §1

[6] = system: Poa annua (POAAN); test: Herbicidal pre-emergence action (A), 1280 g/ha; conditions: visual grading after ca. 3 weeks vs untreated controls, 100% = plants have died off, 0% = as control plants
Summary of the method: as §1

[7] = system: Lolium rigidum (LOLRI); test: Herbicidal pre-emergence action (A), 1280 g/ha; conditions: visual grading after ca. 3 weeks vs untreated controls, 100% = plants have died off, 0% = as control plants
Summary of the method: as §1

[8] = system: Stellaria media (STEME); test: Herbicidal pre-emergence action (A), 1280 g/ha; conditions: visual grading after ca. 3 weeks vs untreated controls
Summary of the method: as §1

[9] = system: Veronica persica (VERPE); test: Herbicidal pre-emergence action (A), 1280 g/ha; conditions: visual grading after ca. 3 weeks vs untreated controls
Summary of the method: as §1

[10] = system: Setaria viridis (SETVI); test: Herbicidal pre-emergence action (A), 1280 g/ha; conditions: visual grading after ca. 3 weeks vs untreated controls
Summary of the method: as §1

[11] = system: Kochia scoparia (KCHSC; Bassia scoparia); test: Herbicidal pre-emergence action (A), 1280 g/ha; conditions: visual grading after ca. 3 weeks vs untreated controls
Summary of the method: as §1

[12] = system: Alopecurus myosuroides (ALOMY); test: Herbicidal pre-emergence action (A), 1280 g/ha; conditions: visual grading after ca. 3 weeks vs untreated controls, 100% = plants have died off, 0% = as control plants
Summary of the method: as §1

[13] = system: Digitaria sanguinalis (DIGSA); test: Herbicidal pre-emergence action (C), 320 g/ha; conditions: ca. 3 weeks
Summary of the method: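 Weed and crop seeds sown in sandy loam; WP or EC formulations applied pre-emergence to the soil surface as aqueous suspension/emulsion with 0.5% additive at 600 l water/ha. Greenhouse-grown under optimum conditions; damage visually scored after ca. 3 weeks versus untreated controls (0% = as control, 100% = plants dead).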

[14] = system: Echinochloa crus-galli (ECHCG); test: Herbicidal post-emergence action (D), 320 g/ha; conditions: ca. 3 weeks
Summary of the method: (§2)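 Post-emergence greenhouse test. Sandy loam; spray at single-leaf stage (2–3 wk after sowing); WP or EC in water + 0.5% additive, 600 l/ha. Visual rating ~3 wk post-spray, % effect vs untreated (0 = control, 100 = dead).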

[15] = system: Amaranthus retroflexus (AMARE); test: Herbicidal post-emergence action (D), 320 g/ha; conditions: ca. 3 weeks
Summary of the method: as §2

[16] = system: Polygonum convolvulus (POLCO); test: Herbicidal post-emergence action (D), 320 g/ha; conditions: ca. 3 weeks
Summary of the method: as §2

[17] = system: Veronica persica (VERPE); test: Herbicidal post-emergence action (D), 320 g/ha; conditions: ca. 3 weeks
Summary of the method: as §2

[18] = system: Alopecurus myosuroides (ALOMY); test: Herbicidal post-emergence action (D), 320 g/ha; conditions: ca. 3 weeks
Summary of the method: as §2

[19] = system: Echinochloa crus-galli (ECHCG); test: Herbicidal pre-emergence action (C), 320 g/ha; conditions: ca. 3 weeks
Summary of the method: (§3)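 Sandy loam pots, seeds covered with soil → WP/EC compound sprayed on soil surface (aq., +0.5% additive, 600 l/ha) → greenhouse, optimum growth → visual herbicidal effect (%) at ca. 3 wk vs untreated.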

[20] = system: Amaranthus retroflexus (AMARE); test: Herbicidal pre-emergence action (C), 320 g/ha; conditions: ca. 3 weeks
Summary of the method: as §3

[21] = system: Lolium rigidum (LOLRI); test: Herbicidal pre-emergence action (C), 320 g/ha; conditions: ca. 3 weeks
Summary of the method: as §3

[22] = system: Veronica persica (VERPE); test: Herbicidal pre-emergence action (C), 320 g/ha; conditions: ca. 3 weeks
Summary of the method: as §3

[23] = system: Setaria viridis (SETVI); test: Herbicidal pre-emergence action (C), 320 g/ha; conditions: ca. 3 weeks
Summary of the method: as §3

[24] = system: Alopecurus myosuroides (ALOMY); test: Herbicidal pre-emergence action (C), 320 g/ha; conditions: ca. 3 weeks
Summary of the method: as §3

Cc1cc2scnc2nc1-c1ccc(F)cc1F [Example I-122]
100%: ECHCG, herbicidal effect in percent (%) [1] | herbicidal effect MATIN [2] | ABUTH, herbicidal effect in percent (%) [3] | DIGSA, herbicidal effect in percent (%) [4] | herbicidal effect AMARE [5] | POAAN, herbicidal effect in percent (%) [6] | LOLRI, herbicidal effect in percent (%) [7] | herbicidal effect STEME [8] | herbicidal effect VERPE [9] | herbicidal effect SETVI [10] | herbicidal effect KCHSC [11] | ALOMY, herbicidal effect in percent (%) [12] | herbicidal effect DIGSA [13] | herbicidal effect ECHCG [19] | herbicidal effect LOLRI [21] | herbicidal effect SETVI [23] | herbicidal effect ALOMY [24]
80%: herbicidal effect ECHCG [14] | herbicidal effect AMARE [15]
90%: herbicidal effect POLCO [16] | herbicidal effect VERPE [17] | herbicidal effect ALOMY [18] | herbicidal effect AMARE [20] | herbicidal effect VERPE [22]

CCc1cc2scnc2nc1-c1ccccc1 [Example I-051]
90%: herbicidal effect MATIN [2] | ABUTH, herbicidal effect in percent (%) [3] | herbicidal effect STEME [8] | herbicidal effect VERPE [9] | herbicidal effect KCHSC [11] | herbicidal effect ECHCG [14] | herbicidal effect AMARE [15] | herbicidal effect POLCO [16] | herbicidal effect VERPE [17] | herbicidal effect ALOMY [18] | herbicidal effect AMARE [20] | herbicidal effect VERPE [22]
100%: ECHCG, herbicidal effect in percent (%) [1] | DIGSA, herbicidal effect in percent (%) [4] | POAAN, herbicidal effect in percent (%) [6] | LOLRI, herbicidal effect in percent (%) [7] | herbicidal effect SETVI [10] | ALOMY, herbicidal effect in percent (%) [12] | herbicidal effect DIGSA [13] | herbicidal effect ECHCG [19] | herbicidal effect LOLRI [21] | herbicidal effect SETVI [23] | herbicidal effect ALOMY [24]

Cc1cc2scnc2nc1-c1ccccc1 [Example I-041]
90%: ABUTH, herbicidal effect in percent (%) [3] | herbicidal effect AMARE [15] | herbicidal effect POLCO [16] | herbicidal effect VERPE [17] | herbicidal effect ALOMY [18] | herbicidal effect AMARE [20] | herbicidal effect VERPE [22]
100%: ECHCG, herbicidal effect in percent (%) [1] | herbicidal effect MATIN [2] | DIGSA, herbicidal effect in percent (%) [4] | herbicidal effect AMARE [5] | POAAN, herbicidal effect in percent (%) [6] | LOLRI, herbicidal effect in percent (%) [7] | herbicidal effect STEME [8] | herbicidal effect VERPE [9] | herbicidal effect SETVI [10] | herbicidal effect KCHSC [11] | ALOMY, herbicidal effect in percent (%) [12] | herbicidal effect DIGSA [13] | herbicidal effect ECHCG [14] | herbicidal effect ECHCG [19] | herbicidal effect LOLRI [21] | herbicidal effect SETVI [23] | herbicidal effect ALOMY [24]

CCc1cc2scnc2nc1-c1ccccc1F [Example I-023]
90%: ABUTH, herbicidal effect in percent (%) [3] | herbicidal effect STEME [8] | herbicidal effect ECHCG [14] | herbicidal effect POLCO [16] | herbicidal effect VERPE [17] | herbicidal effect ALOMY [18] | herbicidal effect VERPE [22]
80%: herbicidal effect AMARE [20]
100%: ECHCG, herbicidal effect in percent (%) [1] | herbicidal effect MATIN [2] | DIGSA, herbicidal effect in percent (%) [4] | herbicidal effect AMARE [5] | POAAN, herbicidal effect in percent (%) [6] | LOLRI, herbicidal effect in percent (%) [7] | herbicidal effect VERPE [9] | herbicidal effect SETVI [10] | herbicidal effect KCHSC [11] | ALOMY, herbicidal effect in percent (%) [12] | herbicidal effect DIGSA [13] | herbicidal effect AMARE [15] | herbicidal effect ECHCG [19] | herbicidal effect LOLRI [21] | herbicidal effect SETVI [23] | herbicidal effect ALOMY [24]

Cc1cc2scnc2nc1-c1ccccc1Cl [Example I-045]
100%: ECHCG, herbicidal effect in percent (%) [1] | herbicidal effect MATIN [2] | DIGSA, herbicidal effect in percent (%) [4] | herbicidal effect AMARE [5] | POAAN, herbicidal effect in percent (%) [6] | LOLRI, herbicidal effect in percent (%) [7] | herbicidal effect STEME [8] | herbicidal effect VERPE [9] | herbicidal effect SETVI [10] | herbicidal effect KCHSC [11] | ALOMY, herbicidal effect in percent (%) [12] | herbicidal effect DIGSA [13] | herbicidal effect AMARE [15] | herbicidal effect ECHCG [19] | herbicidal effect LOLRI [21] | herbicidal effect SETVI [23] | herbicidal effect ALOMY [24]
90%: ABUTH, herbicidal effect in percent (%) [3] | herbicidal effect ECHCG [14] | herbicidal effect POLCO [16] | herbicidal effect VERPE [17] | herbicidal effect ALOMY [18] | herbicidal effect AMARE [20] | herbicidal effect VERPE [22]

Fc1ccccc1-c1nc2ncsc2cc1Cl [Example I-017]
100%: ECHCG, herbicidal effect in percent (%) [1] | herbicidal effect MATIN [2] | DIGSA, herbicidal effect in percent (%) [4] | herbicidal effect AMARE [5] | POAAN, herbicidal effect in percent (%) [6] | LOLRI, herbicidal effect in percent (%) [7] | herbicidal effect STEME [8] | herbicidal effect SETVI [10] | herbicidal effect KCHSC [11] | ALOMY, herbicidal effect in percent (%) [12] | herbicidal effect DIGSA [13] | herbicidal effect AMARE [15] | herbicidal effect ECHCG [19] | herbicidal effect LOLRI [21] | herbicidal effect SETVI [23] | herbicidal effect ALOMY [24]
90%: ABUTH, herbicidal effect in percent (%) [3] | herbicidal effect VERPE [9] | herbicidal effect POLCO [16] | herbicidal effect VERPE [17] | herbicidal effect ALOMY [18] | herbicidal effect AMARE [20] | herbicidal effect VERPE [22]
80%: herbicidal effect ECHCG [14]

Cc1cc2scnc2nc1-c1sccc1Cl [Example I-137]
90%: herbicidal effect MATIN [2] | herbicidal effect ECHCG [14] | herbicidal effect AMARE [15] | herbicidal effect ALOMY [18] | herbicidal effect AMARE [20] | herbicidal effect VERPE [22]
100%: ECHCG, herbicidal effect in percent (%) [1] | ABUTH, herbicidal effect in percent (%) [3] | DIGSA, herbicidal effect in percent (%) [4] | herbicidal effect AMARE [5] | POAAN, herbicidal effect in percent (%) [6] | LOLRI, herbicidal effect in percent (%) [7] | herbicidal effect STEME [8] | herbicidal effect VERPE [9] | herbicidal effect SETVI [10] | herbicidal effect KCHSC [11] | ALOMY, herbicidal effect in percent (%) [12] | herbicidal effect DIGSA [13] | herbicidal effect ECHCG [19] | herbicidal effect LOLRI [21] | herbicidal effect SETVI [23] | herbicidal effect ALOMY [24]
80%: herbicidal effect POLCO [16] | herbicidal effect VERPE [17]

CCc1cc2scnc2nc1-c1cccc(F)c1 [Example I-029]
100%: ECHCG, herbicidal effect in percent (%) [1] | DIGSA, herbicidal effect in percent (%) [4] | herbicidal effect AMARE [5] | POAAN, herbicidal effect in percent (%) [6] | LOLRI, herbicidal effect in percent (%) [7] | herbicidal effect STEME [8] | herbicidal effect SETVI [10] | herbicidal effect KCHSC [11] | ALOMY, herbicidal effect in percent (%) [12] | herbicidal effect DIGSA [13] | herbicidal effect ECHCG [19] | herbicidal effect LOLRI [21] | herbicidal effect SETVI [23] | herbicidal effect ALOMY [24]
90%: herbicidal effect MATIN [2] | ABUTH, herbicidal effect in percent (%) [3] | herbicidal effect VERPE [9] | herbicidal effect ECHCG [14] | herbicidal effect POLCO [16] | herbicidal effect VERPE [17] | herbicidal effect ALOMY [18] | herbicidal effect AMARE [20] | herbicidal effect VERPE [22]
